Results: patent US5302514A, “Maltooligoside derivative, reagent for determining α-amylase activity containing the same as effective ingredient and a process for determining the α-amylase activity using same” (Kikkoman Corporation, priority 1991, dated 1994)

Experiments:
[1] = target: T1, amylase derived from human saliva (human S type α-amylase) (Homo sapiens, UniProt P0DUB6); test: Km value, S type α-amylase; assay type: biochemical; conditions: pH 7.0, 37° C., Lineweaver-Burk
T1 sequence (P0DUB6 16-511): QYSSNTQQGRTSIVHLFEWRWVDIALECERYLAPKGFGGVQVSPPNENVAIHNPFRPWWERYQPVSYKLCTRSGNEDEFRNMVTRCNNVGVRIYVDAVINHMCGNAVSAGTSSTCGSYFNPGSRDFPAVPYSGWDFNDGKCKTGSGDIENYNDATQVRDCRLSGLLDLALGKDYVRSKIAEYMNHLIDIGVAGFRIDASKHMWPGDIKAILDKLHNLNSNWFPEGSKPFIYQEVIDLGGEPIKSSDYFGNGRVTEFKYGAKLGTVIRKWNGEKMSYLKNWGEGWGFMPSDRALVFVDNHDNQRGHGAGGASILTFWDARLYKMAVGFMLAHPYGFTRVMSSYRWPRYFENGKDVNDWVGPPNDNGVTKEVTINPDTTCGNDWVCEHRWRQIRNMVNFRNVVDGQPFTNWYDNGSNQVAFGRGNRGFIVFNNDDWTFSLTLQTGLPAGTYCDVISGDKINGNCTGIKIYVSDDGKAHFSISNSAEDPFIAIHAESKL
Procedure: Km values, hydrolysis rate, water solubility and the patterns of action in the hydrolysis of the present substrates 2-chloro-4-nitrophenyl 5^5 -eno-4^5 -O-mesyl-β-D-maltopentaoside (EMG5CNP) and 2-chloro-4-nitrophenyl 6^5 -azido-6^5 -deoxy- β-D-maltopentaoside (ADG5CNP) obtained in Example were examined in accordance with the following methods.
Substrate solutions were prepared by dissolving in a 50 mM phosphate buffer (pH=7.0) containing 40 mM NaCl and 2 mM MgCl2 a substrate to 0.16, 0.32, 0.48, 0.64, 0.80 and 0.96 mM, respectively.
The Km value of each substrate solution was obtained by measuring the hydrolysis rate of the substrate in accordance with the same procedure as in the measurement of hydrolysis rate described below and roughly calculating the Lineweaver-Burk's reciprocal plot (see "Tanpaku-Kohso no Jikken-hou", ed. Takeichi Horio & Jinpei Yamashita, Nanko-do, 1981).
Each substrate was dissolved in a 50 mM phosphate buffer (pH=7.0) containing 40 mM NaCl and 2 mM MgCl2 to make three substrate solutions in a concentration of 0.8-1.6 times and three substrate solutions in a concentration of 1.6-3.2 times per the roughly calculated Km value in the aforementioned paragraph (ii).
The Km value was calculated in accordance with the same procedure as in the aforementioned paragraph (ii).
S: amylase derived from human saliva.

[2] = tested on: coupled enzyme (α-glucosidase derived from yeast and β-glucosidase derived from almond); test: Coupled enzyme resistance test; assay type: biochemical; conditions: 37° C., pH 7.0, FIG. 3 / FIG. 4; for hydrolysis by the coupled enzyme (in words): 3.0 mM substrate solution, α-glucosidase 1053 units/ml, β-glucosidase 15.5 units/ml, 400 nm for 5 minutes; for stability in a measuring system (in words): coupled enzyme system
Procedure: 2-chloro-4-nitrophenyl 5^5 -eno-4^5 -O-mesyl-β-D-maltopentaoside (molecular weight: 1044; referred to hereinafter as substrate of the present invention) obtained in Example 1 was dissolved in a 50 mM phosphate buffer (pH=7.0) containing 40 mM NaCl and 2 mM MgCl2 to a concentration of 3.0 mM.
2-chloro-4-nitrophenyl β-D-maltopentaoside (molecular weight: 984; referred to hereinafter as reference substrate) obtained in the conventional method was dissolved in a 50 mM phosphate buffer (pH=7.0) containing 40 mM NaCl and 2 mM MgCl2 to a concentation of 3.0 mM.
Coupled enzyme solution was prepared by dissolving a commercially available α-glucosidase derived from yeast and a commercially available β-glucosidase derived from almond in a 50 mM phosphate buffer (pH=7.0) containing 40 mM NaCl and 2 mM MgCl2 to a concentration of 1053 units/ml and 15.5 units/ml, respectively. As the commercially available α- and β-glucosidases, those available from Toyobo Co., Ltd. were used.
After 1.0 ml of a coupled enzyme solution was heated at 37° C. for 5 minutes, it was mixed sufficiently with 2.0 ml of the substrate solution of the present invention or the reference substrate solution and heated at 37° C. for 3 minutes. Then, variations of the absorbance at a wavelength of 400 nm were measured for 5 minutes.
The test was carried out in the same manner as in Example 9 except that 2-chloro-4-nitrophenyl 6^5 -azido-6^5 -deoxy-β-D-maltopentaoside (molecular weight: 1009; referred to hereinafter as the substrate of the present invention) obtained in Example 3 was employed as the substrate (a). In FIG. 4, marks Δ show the plottings of the substrate solution (a) and the marks .quadrature. show the plottings of the substrate solution (b).

Km [1]	hydrolysis by the coupled enzyme (in words) [2]	stability in a measuring system (in words) [2]	SMILES
260 µM	not hydrolyzed	stable	[N-]=[N+]=NC[C@H]1O[C@H](O[C@H]2[C@H](O)[C@@H](O)[C@@H](O[C@H]3[C@H](O)[C@@H](O)[C@@H](O[C@H]4[C@H](O)[C@@H](O)[C@@H](O[C@H]5[C@H](O)[C@@H](O)[C@H](Oc6ccc([N+](=O)[O-])cc6Cl)O[C@@H]5CO)O[C@@H]4CO)O[C@@H]3CO)O[C@@H]2CO)[C@H](O)[C@@H](O)[C@@H]1O [ADG5CNP, 2-chloro-4-nitrophenyl 6^5-azido-6^5-deoxy-β-D-maltopentaoside]
140 µM	not hydrolyzed	stable	C=C1O[C@H](O[C@H]2[C@H](O)[C@@H](O)[C@@H](O[C@H]3[C@H](O)[C@@H](O)[C@@H](O[C@H]4[C@H](O)[C@@H](O)[C@@H](O[C@H]5[C@H](O)[C@@H](O)[C@H](Oc6ccc([N+](=O)[O-])cc6Cl)O[C@@H]5CO)O[C@@H]4CO)O[C@@H]3CO)O[C@@H]2CO)[C@H](O)[C@@H](O)[C@@H]1OS(C)(=O)=O [EMG5CNP, 2-chloro-4-nitrophenyl 5^5-eno-4^5 -O-mesyl-β-D-maltopentaoside]
